# According to ChEMBL document CHEMBL5584214, “Design of MERS-CoV entry inhibitory short peptides based on helix-stabilizing strategies” (Bioorg Med Chem Lett, 2024):
# Non-standard residues stand in square brackets, D forms with d. Residues, ends and D or L forms follow the SMILES beside them. Aib = CC(C)(N)C(=O)O
# Assay: Inhibition of MERS-CoV Spike glycoprotein mediated cell-cell fusion
# Design: species or system Middle East respiratory syndrome-related coronavirus
row,Compound,EC50
1,CSCC[C@H](NC(=O)[C@H](CCC(=O)O)NC(=O)[C@H](Cc1ccc(O)cc1)NC(=O)[C@@H](NC(=O)[C@H](CC(C)C)NC(=O)[C@H](CC(=O)O)NC(=O)[C@H](CC(C)C)NC(C)=O)[C@@H](C)O)C(=O)N[C@@H](CC(C)C)C(=O)N[C@@H](CO)C(=O)N[C@@H](CC(C)C)C(=O)N[C@@H](CCC(N)=O)C(=O)N[C@@H](CCC(N)=O)C(=O)N[C@H](C(=O)N[C@H](C(=O)N[C@@H](CCCCN)C(=O)N[C@@H](C)C(=O)N[C@@H](CC(C)C)C(=O)N[C@@H](CC(N)=O)C(=O)N[C@@H](CCC(=O)O)C(=O)N[C@@H](CO)C(=O)N[C@@H](Cc1ccc(O)cc1)C(N)=O)C(C)C)C(C)C,> 50 µM
2,CSCC[C@H](NC(=O)C(C)(C)NC(=O)[C@H](Cc1ccc(O)cc1)NC(=O)[C@H](CCC(=O)O)NC(=O)[C@H](CC(C)C)NC(=O)C(C)(C)NC(=O)[C@H](CC(C)C)NC(C)=O)C(=O)N[C@@H](CCCCN)C(=O)N[C@@H](CO)C(=O)N[C@@H](CC(C)C)C(=O)N[C@@H](CCC(N)=O)C(=O)N[C@@H](CCC(N)=O)C(=O)N[C@H](C(=O)N[C@H](C(=O)N[C@@H](CCCCN)C(=O)N[C@@H](C)C(=O)N[C@@H](CC(C)C)C(=O)N[C@@H](CC(N)=O)C(=O)N[C@@H](CCC(=O)O)C(=O)N[C@@H](CO)C(=O)N[C@@H](Cc1ccc(O)cc1)C(N)=O)C(C)C)C(C)C,14.8 µM
3,CSCC[C@H](NC(=O)[C@H](CCC(=O)O)NC(=O)[C@H](Cc1ccc(O)cc1)NC(=O)[C@@H](NC(=O)[C@H](CC(C)C)NC(=O)[C@H](CC(=O)O)NC(=O)[C@H](CC(C)C)NC(C)=O)[C@@H](C)O)C(=O)N[C@@H](CC(C)C)C(=O)N[C@@H](CO)C(=O)N[C@@H](CC(C)C)C(=O)N[C@@H](CCC(N)=O)C(=O)N[C@@H](CCC(N)=O)C(=O)N[C@H](C(=O)N[C@H](C(=O)NC(C)(C)C(=O)N[C@@H](C)C(=O)N[C@@H](CC(C)C)C(=O)N[C@@H](CC(N)=O)C(=O)NC(C)(C)C(=O)N[C@@H](CO)C(=O)N[C@@H](Cc1ccc(O)cc1)C(N)=O)C(C)C)C(C)C,3.04 µM
4,CSCC[C@H](NC(=O)[C@H](CCC(=O)O)NC(=O)C(C)(C)NC(=O)[C@@H](NC(=O)[C@H](CC(C)C)NC(=O)[C@H](CC(=O)O)NC(=O)C(C)(C)NC(C)=O)[C@@H](C)O)C(=O)N[C@@H](CC(C)C)C(=O)N[C@@H](CO)C(=O)N[C@@H](CC(C)C)C(=O)N[C@@H](CCC(N)=O)C(=O)N[C@@H](CCC(N)=O)C(=O)N[C@H](C(=O)N[C@H](C(=O)N[C@@H](CCCCN)C(=O)N[C@@H](C)C(=O)N[C@@H](CC(C)C)C(=O)N[C@@H](CC(N)=O)C(=O)N[C@@H](CCC(=O)O)C(=O)N[C@@H](CO)C(=O)N[C@@H](Cc1ccc(O)cc1)C(N)=O)C(C)C)C(C)C,> 50 µM
5,CSCC[C@H](NC(=O)C(C)(C)NC(=O)[C@H](Cc1ccc(O)cc1)NC(=O)[C@@H](NC(=O)[C@H](CC(C)C)NC(=O)C(C)(C)NC(=O)[C@H](CC(C)C)NC(C)=O)[C@@H](C)O)C(=O)N[C@@H](CC(C)C)C(=O)N[C@@H](CO)C(=O)N[C@@H](CC(C)C)C(=O)N[C@@H](CCC(N)=O)C(=O)N[C@@H](CCC(N)=O)C(=O)N[C@H](C(=O)N[C@H](C(=O)N[C@@H](CCCCN)C(=O)N[C@@H](C)C(=O)N[C@@H](CC(C)C)C(=O)N[C@@H](CC(N)=O)C(=O)N[C@@H](CCC(=O)O)C(=O)N[C@@H](CO)C(=O)N[C@@H](Cc1ccc(O)cc1)C(N)=O)C(C)C)C(C)C,2.33 µM
6,CSCC[C@H](NC(=O)[C@H](CCC(=O)O)NC(=O)C(C)(C)NC(=O)[C@@H](NC(=O)[C@H](CC(C)C)NC(=O)[C@H](CC(=O)O)NC(=O)[C@H](CC(C)C)NC(C)=O)[C@@H](C)O)C(=O)N[C@@H](CC(C)C)C(=O)NC(C)(C)C(=O)N[C@@H](CC(C)C)C(=O)N[C@@H](CCC(N)=O)C(=O)N[C@@H](CCC(N)=O)C(=O)N[C@H](C(=O)N[C@H](C(=O)N[C@@H](CCCCN)C(=O)N[C@@H](C)C(=O)N[C@@H](CC(C)C)C(=O)N[C@@H](CC(N)=O)C(=O)N[C@@H](CCC(=O)O)C(=O)N[C@@H](CO)C(=O)N[C@@H](Cc1ccc(O)cc1)C(N)=O)C(C)C)C(C)C,> 50 µM
7,CSCC[C@H](NC(=O)[C@H](CCC(=O)O)NC(=O)[C@H](Cc1ccc(O)cc1)NC(=O)[C@@H](NC(=O)[C@H](CC(C)C)NC(=O)[C@H](CC(=O)O)NC(=O)[C@H](CC(C)C)NC(C)=O)[C@@H](C)O)C(=O)N[C@@H](CC(C)C)C(=O)N[C@@H](CO)C(=O)N[C@@H](CC(C)C)C(=O)N[C@@H](CCC(N)=O)C(=O)N[C@@H](CCC(N)=O)C(=O)N[C@H](C(=O)N[C@H](C(=O)N[C@@H](CCCCN)C(=O)N[C@@H](C)C(=O)N[C@@H](CC(C)C)C(=O)N[C@@H](CC(N)=O)C(=O)N[C@@H](CCC(=O)O)C(=O)N[C@@H](C)C(=O)N[C@@H](Cc1ccc(O)cc1)C(N)=O)C(C)C)C(C)C,6.67 µM
8,CSCC[C@H](NC(=O)[C@H](CCC(=O)O)NC(=O)[C@H](Cc1ccc(O)cc1)NC(=O)C(C)(C)NC(=O)[C@H](CC(C)C)NC(=O)[C@H](CC(=O)O)NC(=O)[C@H](CC(C)C)NC(C)=O)C(=O)NC(C)(C)C(=O)N[C@@H](CO)C(=O)N[C@@H](CC(C)C)C(=O)N[C@@H](CCC(N)=O)C(=O)N[C@@H](CCC(N)=O)C(=O)N[C@H](C(=O)N[C@H](C(=O)N[C@@H](CCCCN)C(=O)N[C@@H](C)C(=O)N[C@@H](CC(C)C)C(=O)N[C@@H](CC(N)=O)C(=O)N[C@@H](CCC(=O)O)C(=O)N[C@@H](CO)C(=O)N[C@@H](Cc1ccc(O)cc1)C(N)=O)C(C)C)C(C)C,24.4 µM
9,CSCC[C@H](NC(=O)[C@H](CCC(=O)O)NC(=O)[C@H](Cc1ccc(O)cc1)NC(=O)[C@@H](NC(=O)[C@H](CC(C)C)NC(=O)[C@H](CC(=O)O)NC(=O)[C@H](CC(C)C)NC(C)=O)[C@@H](C)O)C(=O)N[C@@H](CC(C)C)C(=O)N[C@@H](CO)C(=O)N[C@@H](CC(C)C)C(=O)N[C@@H](CCC(N)=O)C(=O)NC(C)(C)C(=O)N[C@H](C(=O)N[C@H](C(=O)N[C@@H](CCCCN)C(=O)NC(C)(C)C(=O)N[C@@H](CC(C)C)C(=O)N[C@@H](CC(N)=O)C(=O)N[C@@H](CCC(=O)O)C(=O)N[C@@H](CO)C(=O)N[C@@H](Cc1ccc(O)cc1)C(N)=O)C(C)C)C(C)C (Ac-LDLTYEMLSLQ[Aib]VVK[Aib]LNESY-NH2),6.66 µM
10,CSCC[C@H](NC(=O)[C@H](CCC(=O)O)NC(=O)[C@H](Cc1ccc(O)cc1)NC(=O)[C@@H](NC(=O)[C@H](CC(C)C)NC(=O)[C@H](CC(=O)O)NC(=O)[C@H](CC(C)C)NC(C)=O)[C@@H](C)O)C(=O)N[C@@H](CC(C)C)C(=O)N[C@@H](CO)C(=O)N[C@@H](CC(C)C)C(=O)NC(C)(C)C(=O)N[C@@H](CCC(N)=O)C(=O)N[C@H](C(=O)N[C@H](C(=O)NC(C)(C)C(=O)N[C@@H](C)C(=O)N[C@@H](CC(C)C)C(=O)N[C@@H](CC(N)=O)C(=O)N[C@@H](CCC(=O)O)C(=O)N[C@@H](CO)C(=O)N[C@@H](Cc1ccc(O)cc1)C(N)=O)C(C)C)C(C)C (Ac-LDLTYEMLSL[Aib]QVV[Aib]ALNESY-NH2),2.55 µM
11,CSCC[C@H](NC(=O)[C@H](CCC(=O)O)NC(=O)[C@H](Cc1ccc(O)cc1)NC(=O)[C@@H](NC(=O)[C@H](CC(C)C)NC(=O)[C@H](CC(=O)O)NC(=O)[C@H](CC(C)C)NC(C)=O)[C@@H](C)O)C(=O)N[C@@H](CC(C)C)C(=O)NC(C)(C)C(=O)N[C@@H](CC(C)C)C(=O)N[C@@H](CCC(N)=O)C(=O)N[C@@H](CCC(N)=O)C(=O)NC(C)(C)C(=O)N[C@H](C(=O)N[C@@H](CCCCN)C(=O)N[C@@H](C)C(=O)N[C@@H](CC(C)C)C(=O)N[C@@H](CC(N)=O)C(=O)N[C@@H](CCC(=O)O)C(=O)N[C@@H](CO)C(=O)N[C@@H](Cc1ccc(O)cc1)C(N)=O)C(C)C (Ac-LDLTYEML[Aib]LQQ[Aib]VKALNESY-NH2),> 50 µM
